Source: patent publication US20230271965A1, “BICYCLIC HETEROARENES AND METHODS OF THEIR USE” (Kineta, Inc., priority 2020, published 2023)

Legend:
[1] = biological target: T1, full-length human PIKFYVE (GST-PIKFYVE) (Homo sapiens, UniProt Q9Y2I7, L932S/Q1183K/Q995L/S1033A/S696N/T998S); test: PIKfyve biochemical assay (ADP-Glo Kinase assay, Carna Biosciences); details: ADP-Glo, full-length human PIKFYVE; read-out: hPIKfyve IC50
T1 construct: A full-length human PIKFYVE [1-2098 (end) amino acids; purchased Carna Biosciences; host or cells: baculovirus expression system
T1 sequence (Q9Y2I7 whole entry S696N/L932S/Q995L/T998S/S1033A/Q1183K): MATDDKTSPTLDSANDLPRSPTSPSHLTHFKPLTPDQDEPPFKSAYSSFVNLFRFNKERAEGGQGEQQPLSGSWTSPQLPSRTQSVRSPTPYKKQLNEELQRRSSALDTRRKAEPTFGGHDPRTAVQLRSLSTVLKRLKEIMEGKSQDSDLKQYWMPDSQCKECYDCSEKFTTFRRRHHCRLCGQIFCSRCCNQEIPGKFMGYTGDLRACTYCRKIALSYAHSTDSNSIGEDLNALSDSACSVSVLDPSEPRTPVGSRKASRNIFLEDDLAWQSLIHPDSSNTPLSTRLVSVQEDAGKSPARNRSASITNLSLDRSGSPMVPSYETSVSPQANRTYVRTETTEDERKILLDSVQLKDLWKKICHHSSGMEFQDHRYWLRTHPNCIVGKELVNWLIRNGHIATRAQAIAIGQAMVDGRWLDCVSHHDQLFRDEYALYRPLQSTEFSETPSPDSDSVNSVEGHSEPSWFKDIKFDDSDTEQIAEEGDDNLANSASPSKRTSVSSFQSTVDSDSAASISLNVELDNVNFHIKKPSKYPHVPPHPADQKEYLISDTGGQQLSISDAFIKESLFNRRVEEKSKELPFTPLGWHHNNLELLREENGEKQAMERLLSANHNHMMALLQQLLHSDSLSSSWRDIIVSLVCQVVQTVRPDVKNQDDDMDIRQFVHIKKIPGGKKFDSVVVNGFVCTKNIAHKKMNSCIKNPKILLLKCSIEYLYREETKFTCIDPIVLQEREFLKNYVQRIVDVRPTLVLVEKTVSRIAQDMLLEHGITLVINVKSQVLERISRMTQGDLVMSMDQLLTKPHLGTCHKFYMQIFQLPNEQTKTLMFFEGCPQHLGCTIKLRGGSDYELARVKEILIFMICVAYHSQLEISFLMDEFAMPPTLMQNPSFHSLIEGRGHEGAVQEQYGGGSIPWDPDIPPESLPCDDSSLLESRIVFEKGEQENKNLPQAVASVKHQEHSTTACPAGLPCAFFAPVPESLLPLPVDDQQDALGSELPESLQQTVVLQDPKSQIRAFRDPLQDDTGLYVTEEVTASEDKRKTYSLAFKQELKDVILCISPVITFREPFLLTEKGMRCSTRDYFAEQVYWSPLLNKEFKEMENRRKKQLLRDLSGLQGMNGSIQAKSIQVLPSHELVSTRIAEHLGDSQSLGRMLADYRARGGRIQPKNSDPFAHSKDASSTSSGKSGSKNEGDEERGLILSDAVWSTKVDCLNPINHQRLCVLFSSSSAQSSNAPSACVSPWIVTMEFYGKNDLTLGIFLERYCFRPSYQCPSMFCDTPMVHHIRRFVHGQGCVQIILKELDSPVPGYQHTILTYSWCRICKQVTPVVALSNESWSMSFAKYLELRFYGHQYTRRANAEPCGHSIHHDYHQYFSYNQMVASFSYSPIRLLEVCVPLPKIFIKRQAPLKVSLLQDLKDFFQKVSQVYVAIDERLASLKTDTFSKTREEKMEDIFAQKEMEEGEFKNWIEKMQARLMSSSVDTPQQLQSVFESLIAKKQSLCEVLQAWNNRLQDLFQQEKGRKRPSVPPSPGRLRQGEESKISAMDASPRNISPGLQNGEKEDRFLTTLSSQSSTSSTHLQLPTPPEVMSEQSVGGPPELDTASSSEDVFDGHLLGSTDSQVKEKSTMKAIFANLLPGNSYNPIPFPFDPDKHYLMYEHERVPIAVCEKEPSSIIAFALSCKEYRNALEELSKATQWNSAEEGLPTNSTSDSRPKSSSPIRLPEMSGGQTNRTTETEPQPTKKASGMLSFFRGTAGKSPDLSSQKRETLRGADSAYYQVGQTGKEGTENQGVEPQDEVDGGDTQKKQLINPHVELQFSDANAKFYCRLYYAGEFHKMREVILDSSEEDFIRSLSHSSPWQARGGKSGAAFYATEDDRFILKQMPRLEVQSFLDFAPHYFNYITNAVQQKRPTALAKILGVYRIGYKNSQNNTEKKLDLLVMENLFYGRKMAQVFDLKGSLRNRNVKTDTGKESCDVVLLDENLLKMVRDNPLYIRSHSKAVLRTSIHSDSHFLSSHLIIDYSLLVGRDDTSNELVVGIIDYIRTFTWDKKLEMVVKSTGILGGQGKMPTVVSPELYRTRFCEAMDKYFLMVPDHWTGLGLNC
Method: PIKfyve Biochemical Assay. The biochemical PIKFyve inhibition assays were run by Carna Biosciences according to proprietary methodology based on the Promega ADP-Glo™ Kinase assay. […] GST-PIKFYVE was purified by using glutathione sepharose chromatography and used in an ADP-Glo™ Kinase assay (Promega). Reactions were set up by adding the test compound solution, substrate solution, ATP solution and kinase solution, each at 4×final concentrations. Reactions were prepared with assay buffer (50 mM MOPS, 1 mM DTT, pH7.2), mixed, and incubated in black 384 well polystyrene plates for 1 hour at room temperature. ADP-Glo™ reagent was then added for 40 minutes, followed by kinase detection reagent for an additional 40 minutes. The kinase activity was evaluated by detecting relative light units on a luminescence plate reader. Samples were run in duplicate from 10 μM to 3 nM. […] IC50 values were calculated from concentration vs % inhibition curves by fitting to a four-parameter logistic curve.
The biochemical PIKFyve inhibition assays were run by Carna Biosciences according to proprietary methodology based on the Promega ADP-Glo™ Kinase assay. […] GST-PIKFYVE was purified by using glutathione sepharose chromatography and used in an ADP-Glo™ Kinase assay (Promega).
Reactions were set up by adding the test compound solution, substrate solution, ATP solution and kinase solution, each at 4×final concentrations. Reactions were prepared with assay buffer (50 mM MOPS, 1 mM DTT, pH7.2), mixed, and incubated in black 384 well polystyrene plates for 1 hour at room temperature. ADP-Glo™ reagent was then added for 40 minutes, followed by kinase detection reagent for an additional 40 minutes. The kinase activity was evaluated by detecting relative light units on a luminescence plate reader. Samples were run in duplicate from 10 uM to 3 nM. […] IC50 values were calculated from concentration vs % inhibition curves by fitting to a four-parameter logistic curve.

[2] = biological target: T2, PIKfyve (PIKFYVE-NanoLuc fusion in HEK293 cells) (Homo sapiens, UniProt Q9Y2I7); test: NanoBRET TE Intracellular Kinase Assay, K-8 (Promega) cell-based assay; details: 2 hours, read-out: hPIKfyve BRET IC50
T2 construct: containing a full-length PIKfyve according to manufacturer's specifications; host or cells: HEK293
T2 sequence (Q9Y2I7 whole entry, the tested form may be a part): as the sequence (Q9Y2I7 whole entry S696N/L932S/Q995L/T998S/S1033A/Q1183K) above, with N696S, S932L, L995Q, S998T, A1033S, K1183Q counted along it
Method: NanoBRET™ TE Intracellular Kinase Assay, K-8 (Promega) Cell-Based Assay. Intracellular inhibition of PIKfyve was assayed using Promega's NanoBRET™ TE Intracellular Kinase Assay, K-8 according to manufacturer's instructions. A dilution series of test compounds was added for 2 hours to HEK293 cells transfected for a minimum of 20 hours with PIKFYVE-NanoLuc® Fusion Vector (Promega) containing a full-length PIKfyve according to manufacturer's specifications in a 96-well plate. Kinase activity was detected by addition of a NanoBRET™ tracer reagent, which was a proprietary PIKfyve inhibitor appended to a fluorescent probe (BRET, bioluminescence resonance energy transfer). Test compounds were tested at concentrations of 10, 3, 1, 0.3, 0.1, 0.03, 0.01, 0.003 μM. BRET signals were measured by a GloMax® Discover Multimode Microplate Reader (Promega) using 0.3 sec/well integration time, 450BP donor filter and 600LP acceptor filters. Active test compounds that bound PIKfyve and displaced the tracer reduced BRET signal. IC50 values were then calculated by fitting the data to the normalized BRET ratio.

FAB1 TDP-43 yeast strain = test: Propidium iodide viability assay, control FAB1 TDP-43 yeast strain; assay type: cell-based; details: across a range of compound concentrations (only 0.23 μM is shown), FIG. 5
Method: Generation of TDP-43 yeast model expressing human PIKfyve. Human PIKFYVE (“entry clone”) was cloned into pAG416GPDccdB (“destination vector”) according to standard Gateway cloning protocols (Invitrogen, Life Technologies). The resulting pAG416GPD-PIKFYVE plasmids were amplified in E. coli and plasmid identity confirmed by restriction digest and Sanger sequencing. […]
Transformed yeast were plated on solid agar plates with complete synthetic media lacking uracil (CSM-ura) and containing 2% glucose. […] Multiple independent isolates were further evaluated for cytotoxicity and TDP-43 expression levels.
Viability Assay. A control yeast strain with the wild-type yeast FAB1 gene and TDP-43 (“FAB1 TDP-43”, carries empty pAG416 plasmid), and the “PIKFYVE TDP-43” yeast strain, were assessed for toxicity using a propidium iodide viability assay. […] Wells containing DMSO alone were also evaluated as controls for compound effects. […]
Upon the completion of incubation, cultures were assayed for viability using propidium iodide (PI) to stain for dead/dying cells. […] A benchtop flow cytometer (Miltenyi MACSquant) was then used to assess red fluorescence ([…]), forward scatter, and side scatter (with following settings: gentle mix, high flow rate, fast measurement, 10,000 events). […]

[3] = system: PIKFYVE TDP-43 yeast strain; test: Propidium iodide viability assay, PIKFYVE TDP-43 yeast strain; assay type: cell-based; details: 0.23 μM, FIG. 6
Excerpt: Generation of TDP-43 yeast model expressing human PIKfyve. Human PIKFYVE (“entry clone”) was cloned into pAG416GPDccdB (“destination vector”) according to standard Gateway cloning protocols (Invitrogen, Life Technologies). The resulting pAG416GPD-PIKFYVE plasmids were amplified in E. coli and plasmid identity confirmed by restriction digest and Sanger sequencing. Lithium acetate/polyethylene glycol-based transformation was used to introduce the above PIKFYVE plasmid into a BY4741 yeast strain auxotrophic for the ura3 gene and deleted for two transcription factors that regulate the xenobiotic efflux pumps, a major efflux pump, and FAB1, the yeast ortholog of PIKFYVE (MATa, snq2::KILeu2; pdr3::KIura3; pdr1::NATMX; fab1::G418^R, his3; leu2; ura3; met15; LYS2+) (FIG. 2).
Transformed yeast were plated on solid agar plates with complete synthetic media lacking uracil (CSM-ura) and containing 2% glucose. Individual colonies harboring the control or PIKFYVE TDP-43 plasmids were recovered. A plasmid containing wild-type TDP-43 under the transcriptional control of the GAL1 promoter and containing the hygromycin-resistance gene as a selectable marker was transformed into the fab1::G418^R pAG416GPD-PIKFYVE yeast strain (FIG. 1). Transformed yeast were plated on CSM-ura containing 2% glucose and […] after overnight recovery in media lacking antibiotic. Multiple independent isolates were further evaluated for cytotoxicity and TDP-43 expression levels.
Viability Assay. A control yeast strain with the wild-type yeast FAB1 gene and TDP-43 (“FAB1 TDP-43”, carries empty pAG416 plasmid), and the “PIKFYVE TDP-43” yeast strain, were assessed for toxicity using a propidium iodide viability assay. Both yeast strains were transferred from solid CSM-ura/2% glucose agar plates into 3 mL of liquid CSM-ura/2% glucose media for 6-8 hours at 30° C. with aeration. Yeast cultures were then diluted to an optical density at 600 nm wavelength (OD600) of 0.005 in 3 mL of CSM-ura/2% raffinose and grown overnight at 30° C. with aeration to an OD600 of 0.3-0.8. Log-phase overnight cultures were diluted to OD600 of 0.005 in CSM-ura containing either 2% raffinose or galactose and 150 μL dispensed into each well of a flat bottom 96-well plates. Compounds formulated in 100% dimethyl sulfoxide (DMSO) were serially diluted in DMSO and 1.5 μL diluted compound transferred to the 96-well plates using a multichannel pipet. Wells containing DMSO alone were also evaluated as controls for compound effects. Tested concentrations ranged from 15 μM to […]. Cultures were immediately mixed to ensure compound distribution and covered plates incubated at 30° C. for 24 hours in a stationary, humified incubator.
Upon the completion of incubation, cultures were assayed for viability using propidium iodide (PI) to stain for dead/dying cells. A working solution of PI was made where, for each plate, 1 μL of 10 mM PI was added to 10 mL of CSM-ura (raffinose or galactose). The final PI solution (50 μL/well) was dispensed into each well of a new round bottom 96-well plate. The overnight 96-well assay plate was then mixed with a multichannel pipet and 50 μL transferred to the PI-containing plate. This plate was then incubated for 30 minutes at 30° C. in the dark. A benchtop flow cytometer (Miltenyi MACSquant) was then used to assess red fluorescence ([…]), forward scatter, and side scatter (with following settings: gentle mix, high flow rate, fast measurement, 10,000 events). Intensity histograms were then gated for “PI-positive” or “PI-negative” using the raffinose and galactose cultures treated with DMSO as controls. The DMSO controls for raffinose or galactose-containing cultures were used to determine the window of increased cell death and this difference set to 100. All compounds were similarly gated and then compared to this maximal window to establish the percent reduction in PI-positive cells.

[4] = system: PIKFYVE TDP-43 yeast strain; test: as above; assay type: cell-based; details: concentrations ranging from 0.5 mM to less than 100 nM

SMILES	IC50 [1]	IC50 [2]	other results
c1cncc(N2CCc3c(OCCC4CCCO4)nc(N4CCOCC4)nc32)c1 (stereo not drawn) [Compound 10]	< 10 nM	100 to 1000 nM	
CN1CCC(COc2nc(N3CCOCC3)nc3c2CCN3c2cccnc2)CC1 [Compound 111]	100 to 1000 nM	1000 to 10000 nM	
c1ccc(N2CCc3c(OCCc4ccccn4)nc(N4CCOCC4)nc32)cc1 [Compound 1, 4-(7-phenyl-4-(2-(pyridin-2-yl)ethoxy)-6,7-dihydro-5H-pyrrolo[2,3-d]pyrimidin-2-yl)morpholine]		10 to 100 nM	
OCC(O)COc1nc(N2CCOCC2)nc2c1CCN2c1ccccc1 (stereo not drawn) [Compound 25, 3-((2-morpholino-7-phenyl-6,7-dihydro-5H-pyrrolo[2,3-d]pyrimidin-4-yl)oxy)propane-1,2-diol]		100 to 1000 nM	
c1cncc(Oc2nc(N3CCOCC3)nc3c2CCN3c2cccnc2)c1 [Compound 24, 4-(7-(pyridin-3-yl)-4-(pyridin-3-yloxy)-6,7-dihydro-5H-pyrrolo[2,3-d]pyrimidin-2-yl)morpholine]	10 to 100 nM	1000 to 10000 nM	
c1ccc(N2CCc3c(-c4ccncc4)nc(N4CCOCC4)nc32)cc1 [Compound 41, 4-(7-phenyl-4-(pyridin-4-yl)-6,7-dihydro-5H-pyrrolo[2,3-d]pyrimidin-2-yl)morpholine]	< 10 nM	10 to 100 nM	
COc1nc(N2CCOCC2)nc2c1CCN2c1ccccc1 [Compound 16, 4-(4-methoxy-7-phenyl-6,7-dihydro-5H-pyrrolo[2,3-d]pyrimidin-2-yl)morpholine]		100 to 1000 nM	
Cc1cccc(/C=N/Nc2cc(N3CCOCC3)n3nc(-c4ccncc4)cc3n2)c1 [APY0201]			increase in viable cells in FAB1 TDP-43 (FAB1 TDP-43 yeast strain): no increase in viable cells; population of propidium iodide-positive dead cells in PIKFYVE TDP-43 [3]: reduced the population of propidium iodide-positive dead cells; viability in PIKFYVE TDP-43 model [4]: increased viability
c1ccc(N2CCc3c(Oc4cccnc4)nc(N4CCOCC4)nc32)cc1 [Compound 22, 4-(7-phenyl-4-(pyridin-3-yloxy)-6,7-dihydro-5H-pyrrolo[2,3-d]pyrimidin-2-yl)morpholine]	< 10 nM	100 to 1000 nM	
c1ccc(N2CCc3c(OCc4cccnc4)nc(N4CCOCC4)nc32)cc1 [Compound 3]		10 to 100 nM	
c1ccc(N2CCc3c(OCc4cccnn4)nc(N4CCOCC4)nc32)cc1 [Compound 5]		100 to 1000 nM	
